Data as given in US4795752A, “Amide derivatives and antiallergic agents containing the same” (Terumo Kabushiki Kaisha, priority 1985, dated 1989).

Test system: PCA reaction
Assay: PCA reaction-inhibitory effects in rats (passive cutaneous anaphylaxis, oral administration, Evans Blue dye exudation)
Format: in vivo, rats (female Sprague-Dawley)
Settings: for Inhibition (%) mean ± SE: one hour before challenge; for ED50: Rattus norvegicus, from the percent inhibition-concentration graph, read-out: ID50 against exudation of the dye
Protocol: DNP-ascaris (1 mg) prepared by combining a swine ascaris extract with 2,4-dinitrophenyl sulfate was mixed with 20 mg of aluminum hydroxide gel. The mixture was administered to rats subcutaneously on the back, and at the same time the animals were intraperitoneally given 2×10^10 dead Bordetella pertussis respectively. The same procedures were repeated after 14 days, and blood sample was obtained after 21 days to produce antisera.
Female Sprague-Dawley strain rats (8 weeks old) were sensitized by subcutaneously administering 0.1 ml of 1:256 diluted antisera (titer=1024)respectively on the grained back. After 48 hours, groups of four rats were orally given the amide derivatives produced in the examples above at various concentrations. After one hour, the rats were challenged by intravenously administering a 0.5% physiological saline solution of Evans Blue containing 1 mg of the DNP-ascaris from the tail. After 30 minutes, the animal was sacrificed by bleeding and the portion of the skin with the dye exuded was cut off. The cut skin was treated with 1N--KOH solution, and the dye was extracted by adding 9 ml of 0.6N-phosphoric acid-acetone (5:13) mixture. The supernatant from centrifugal separation was measured for absorbancy at 620 nm to determine amount of the dye. Percent inhibition at each of the concentrations of the amide derivatives was calculated in comparison with amount of the dye for control group. 50% Inhibitory concentration (ID50) of the amide derivatives against exudation of the dye was determined from the percent inhibition-concentration graph. Results are shown in Table-I. Percent inhibition of tranilast, an antiallergic agent commercially available from Kissei Pharmaceutical Co., Ltd. under the trade name of Rizaben against PCA reaction was also shown in Table-I. As shown in Table-I, the amide derivatives of the invention produced high PCA reaction-inhibitory effects.

| SMILES | Inhibition (%) mean ± SE (100 mg/kg) [%] | Inhibition (%) mean ± SE (200 mg/kg) [%] | Inhibition (%) mean ± SE (300 mg/kg) [%] | ED50 [mg/kg] | Inhibition (%) mean ± SE (3 mg/kg) [%] | Inhibition (%) mean ± SE (10 mg/kg) [%] | Inhibition (%) mean ± SE (30 mg/kg) [%] |
| --- | --- | --- | --- | --- | --- | --- | --- |
| COc1ccc(/C=C/C(=O)Nc2ccccc2C(=O)O)cc1OC [Control, tranilast, reference compound] | 37 ± 8 | 40 ± 10 | 42 ± 5 | > 300 | – | – | – |
| CCOC(=O)Oc1ccc(/C=C/C=C/C(=O)NCCN2CCC(OC(c3ccccc3)c3ccccc3)CC2)cc1OC [Example 1, 1-[2-[5-(3-methoxy-4-ethoxycarbonyloxyphenyl)-2,4-pentadienoyl]aminoethyl]-4-benzhydroxypiperidine] | – | – | – | 10 | 26 ± 15 | 51 ± 18 | 71 ± 6 |
| CCOC(=O)Oc1ccc(/C=C/C(=O)NCCN2CCC(OC(c3ccccc3)c3ccccc3)CC2)cc1OC [Example 2, 1-[2-[3-(3-methoxy-4-ethoxycarbonyloxyphenyl)-2-propenoyl]-aminoethyl]-4-benzhydroxypiperidine] | – | – | – | 15 | 20 ± 15 | 41 ± 16 | 64 ± 5 |
| CCOC(=O)Oc1ccc(/C=C/C=C/C(=O)NCCCN2CCN(C(c3ccccc3)c3ccccc3)CC2)cc1OC [Example 3, 1-[3-[5-(3-methoxy-4-ethoxycarbonyloxyphenyl)-2,4-pentadienoyl]aminopropyl]-4-benzhydrylpiperazine] | 63 ± 5 | – | – | 55 | – | 19 ± 14 | 38 ± 15 |
| CCOC(=O)Oc1ccc(/C=C/C(=O)NCCN2CCC(OC(c3ccccc3)c3ccccc3)CC2)cc1OC(=O)OCC [Example 4] | – | – | – | 12 | 22 ± 14 | 46 ± 10 | 68 ± 7 |
| CCOC(=O)Oc1ccc(/C=C/C=C/C(=O)NCCN2CCC(OC(c3ccccc3)c3ccccc3)CC2)cc1OC(=O)OCC [Example 5, 1-[2-[5-(3,4-diethoxycarbonyloxyphenyl)-2,4-pentadienoyl]aminoethyl]-4-benzhydroxypiperidine] | – | – | – | – | 30 ± 16 | 55 ± 10 | 75 ± 4 |
